# Source: US8143394B2, “Pyrido(3,2-d)pyrimidines useful for treating viral infections” (Gilead Sciences, Inc., priority 2006, dated 2012)
# Experiments:
# [1] = CC50 assay (CellTiter-Glo) in Huh-7 HCV replicon cells; format: cell-based, human; settings: human, 50% cytostatic concentration
# Method: (§1) The anti-HCV activity of the pyrido[3,2-d]pyrimidine derivatives of this invention was tested in a human hepatoma Huh-7 cell line harbouring a HCV replicon. The assay comprised the following steps:
# (§2) Step 1: Compound Preparation and Serial Dilution
# (§3) • 1. for water soluble pyrido[3,2-d]pyrimidine derivatives, a volume of 500 μL of solution in cell media (DMEM, 10% FBS, P/S, L-Glutamine) was prepared with a concentration being twice the concentration of the starting final serial dilution concentration. A volume of 150 μL of the solution was added to the pre-specified wells in column 1 of a 96-well cell culture plate (PerkinElmer, white plate, cat. #6005181, for EC50 assay; black plate, cat. #6005182 for CC50 assay). The rest of the plate, columns 2-12, was filled with 100 μL of cell media. The plate was then placed on a Precision 2000 Workstation to start the serial dilution. Compounds were diluted three times each step from column 1 to column 10. Column 11 was used as a blank control (no compound added). • 2. for pyrido[3,2-d]pyrimidine derivatives requiring DMSO to dissolve, serial dilution is performed in 50% DMSO in a 384-well plate. A solution containing a compound at 100-fold concentration of the starting final serial dilution concentration was prepared in 50% DMSO and added to the pre-specified wells in column 1 of a polypropylene 384-well plate. The plate was then placed on a Precision 2000 Workstation to start the serial dilution. After the serial dilution, a volume of 2 μL of the solution was transferred from the 384-well plate to a 96-well cell culture plate containing 100 μL of cell media on a Biomek FX Workstation. The DMSO concentration in the final assay condition was 0.5% after cells are added to the plate and the total volume in each well is brought to 200 μL. Step 2: to each well of the serial dilution plate prepared above, 100 μL of cell media containing 6000 suspended Huh-7 HCV replicon cells was added with a Multidrop workstation. The plates were incubated for 3 days at 37° C. with 5% CO2. Step 3: Detection: • a) for the EC50 assay, the media in a 96-well cell culture plate was aspirated with a Biotek EL405 plate-washer. A volume of 200 μL of a solution containing a 1:1 mixture of cell-lysis buffer (Promega, Luciferase Cell Culture Lysis 5X Reagent, cat. #E1531) and luciferase substrate solution (Promega, Luciferase Assay, cat. # E4550) was added to each well of the plate with Multidrop. The plate was incubated for 30 minutes at room temperature before the luminescence signal was measured with a TopCount plate-reader. • b) for the CC50 assay, a volume of 100 μL of pre-mixed CellTiter-Glo (Promega, cat. # G7572) solution is added directly to the cell culture in each well of the plate and the luminescence signal is measured with a TopCount plate-reader after 10 minutes of incubation at room temperature.
# (§4) Results in table 13 are expressed by the following data: • the 50% effective concentration (EC50), i.e. the concentration that protects 50% of the cell monolayer from virus-induced cythopathic effect, and • the 50% cytostatic concentration (CC50), i.e. the concentration that results in 50% inhibition of cell growth.
# [2] = test system: HCV replicon; assay: Anti-HCV replicon assay (EC50, luciferase readout); format: cell-based; settings: Hepatitis C virus, 72 h; human hepatoma Huh-7 cell line harbouring a HCV replicon; 3 days; luciferase; read-out: EC50
# Method: as §1, §2, §3, §4
Compound,CC50 at 3 days [1] [µM],EC50 [2] [µM]
"CCOc1nc(N)nc2ccc(-c3cccc(NS(=O)(=O)CC)c3)nc12 [Example 54, Ethanesulfonic acid [3-(2-amino-4-ethoxy-pyrido[3,2-d]pyrimidin-6-yl)-phenyl]-amide]",> 20,< 0.3
"CCOc1nc(N)nc2ccc(-c3ccc(NS(=O)(=O)CC)cc3)nc12 [Example 55, ethanesulfonic acid [4-(2-amino-4-ethoxy-pyrido[3,2-d]pyrimidin-6-yl)-phenyl]-amide]",> 20,> 1
"CCOc1nc(N)nc2ccc(-c3ccc(C(=O)NCC(C)C)cc3)nc12 [Example 56, 4-(2-Amino-4-ethoxy-pyrido[3,2-d]pyrimidin-6-yl)-N-isobutyl-benzamide]",> 20,0.3 to 1
"CCCCNC(=O)c1ccc(-c2ccc3nc(N)nc(OCC)c3n2)cc1 [Example 57, 4-(2-Amino-4-ethoxy-pyrido[3,2-d]pyrimidin-6-yl)-N-butyl-benzamide]",> 20,0.3 to 1
"CCOc1nc(N)nc2ccc(-c3ccc(C(=O)NC(C)(C)C)cc3)nc12 [Example 58, 4-(2-Amino-4-ethoxy-pyrido[3,2-d]pyrimidin-6-yl)-N-tert-butyl-benzamide]",> 20,> 1
"CCOc1nc(N)nc2ccc(-c3ccc(C(=O)NC4CCCC4)cc3)nc12 [Example 59, 4-(2-Amino-4-ethoxy-pyrido[3,2-d]pyrimidin-6-yl)-N-cyclopentyl-benzamide]",> 20,0.3 to 1
"CCOc1nc(N)nc2ccc(-c3ccc(C(=O)NOC)cc3)nc12 [Example 60, 4-(2-Amino-4-ethoxy-pyrido[3,2-d]pyrimidin-6-yl)-N-methoxy-benzamide]",> 20,> 1
"CCOc1nc(N)nc2ccc(-c3ccc(C(=O)NC(C)C)cc3)nc12 [Example 61, 4-(2-Amino-4-ethoxy-pyrido[3,2-d]pyrimidin-6-yl)-N-isopropyl-benzamide]",> 20,0.3 to 1
"CCOc1nc(N)nc2ccc(-c3ccc(C(=O)NC4CC4)c(Cl)c3)nc12 [Example 62, 4-(2-Amino-4-ethoxy-pyrido[3,2-d]pyrimidin-6-yl)-2-chloro-N-cyclopropyl-benzamide]",> 20,> 1
"CCOc1nc(N)nc2ccc(-c3ccc(C(=O)NCCN(C)C)cc3)nc12 [Example 63, 4-(2-Amino-4-ethoxy-pyrido[3,2-d]pyrimidin-6-yl)-N-(2-dimethylamino-ethyl)-benzamide]",10 to 20,< 0.3
"CC(C)CNC(=O)c1ccc(-c2ccc3nc(N)nc(OC(C)C)c3n2)cc1 [Example 64, 4-(2-Amino-4-isopropoxy-pyrido[3,2-d]pyrimidin-6-yl)-N-isobutyl-benzamide]",> 20,0.3 to 1
"CC(C)Oc1nc(N)nc2ccc(-c3ccc(C(=O)NC4CCCCC4)cc3)nc12 [Example 65, 4-(2-Amino-4-isopropoxy-pyrido[3,2-d]pyrimidin-6-yl)-N-cyclohexyl-benzamide]",> 20,> 1
"CCCCNC(=O)c1ccc(-c2ccc3nc(N)nc(OC(C)C)c3n2)cc1 [Example 66, 4-(2-Amino-4-isopropoxy-pyrido[3,2-d]pyrimidin-6-yl)-N-n-butyl-benzamide]",> 20,0.3 to 1
"CC(C)Oc1nc(N)nc2ccc(-c3ccc(C(=O)NC(C)(C)C)cc3)nc12 [Example 67, 4-(2-Amino-4-isopropoxy-pyrido[3,2-d]pyrimidin-6-yl)-N-tert-butyl-benzamide]",> 20,0.3 to 1
"CC(C)Oc1nc(N)nc2ccc(-c3ccc(C(=O)NC4CCCC4)cc3)nc12 [Example 68, 4-(2-Amino-4-isopropoxy-pyrido[3,2-d]pyrimidin-6-yl)-N-cyclopentyl-benzamide]",> 20,0.3 to 1
"CC(C)NC(=O)c1ccc(-c2ccc3nc(N)nc(OC(C)C)c3n2)cc1 [Example 69, 4-(2-Amino-4-isopropoxy-pyrido[3,2-d]pyrimidin-6-yl)-N-isopropyl-benzamide]",> 20,< 0.3
"CONC(=O)c1ccc(-c2ccc3nc(N)nc(OC(C)C)c3n2)cc1 [Example 70, 4-[2-Amino-4-isopropoxy-pyrido[3,2-d]pyrimidin-6-yl]-N-methoxy-benzamide]",> 20,< 0.3
"CNC(=O)c1ccc(-c2ccc3nc(N)nc(OC(C)C)c3n2)cc1Cl [Example 71, 4-(2-Amino-4-isopropoxy-pyrido[3,2-d]pyrimidin-6-yl)-2-chloro-N-methyl-benzamide]",> 20,> 1
"CC(C)Oc1nc(N)nc2ccc(-c3ccc(C(=O)NC4CC4)c(Cl)c3)nc12 [Example 72, 4-(2-Amino-4-isopropoxy-pyrido[3,2-d]pyrimidin-6-yl)-2-chloro-N-cyclopropyl-benzamide]",> 20,> 1
"CC(C)Oc1nc(N)nc2ccc(-c3ccc(C(=O)NC4CC4)cc3)nc12 [Example 73, 4-(2-Amino-4-isopropoxy-pyrido[3,2-d]pyrimidin-6-yl)-N-cyclopropyl-benzamide]",> 20,< 0.3
"COc1nc(N)nc2ccc(-c3ccc(C(=O)NC4CC4)cc3)nc12 [Example 74, 4-(2-Amino-4-methoxy-pyrido[3,2-d]pyrimidin-6-yl)-N-cyclopropyl-benzamide]",10 to 20,0.3 to 1
"COCCOc1nc(N)nc2ccc(-c3ccc(C(=O)NC(C)C)cc3)nc12 [Example 75, 4-[2-Amino-4-(2-methoxy-ethoxy)-pyrido[3,2-d]pyrimidin-6-yl]-N-isopropyl-benzamide]",> 20,0.3 to 1
"COCCOc1nc(N)nc2ccc(-c3ccc(C(=O)NOC)cc3)nc12 [Example 76, 4-[2-Amino-4-(2-methoxy-ethoxy)-pyrido[3,2-d]pyrimidin-6-yl]-N-methoxy-benzamide]",> 20,0.3 to 1
"CC(C)N1CCC(NC(=O)c2ccc(-c3ccc4nc(N)nc(O[C@H]5CCOC5)c4n3)cc2)CC1 [Example 77, 4-[2-Amino-4-(tetrahydro-furan-3-yloxy)-pyrido[3,2-d]pyrimidin-6-yl]-N-(1-isopropyl-piperidin-4-yl)-benzamide]",> 20,> 1
"CN1CCCC1CCNC(=O)c1ccc(-c2ccc3nc(N)nc(O[C@H]4CCOC4)c3n2)cc1 (stereo partly shown) [Example 78, 4-[2-Amino-4-(tetrahydro-furan-3-yloxy)-pyrido[3,2-d]pyrimidin-6-yl]-N-[2-(1-methyl-pyrrolidin-2-yl)-ethyl]-benzamide]",> 20,> 1
"Nc1nc(O[C@H]2CCOC2)c2nc(-c3ccc(C(=O)NCCCN4CCCC4)cc3)ccc2n1 [Example 79, 4-[2-Amino-4-(tetrahydro-furan-3-yloxy)-pyrido[3,2-d]pyrimidin-6-yl]-N-(3-pyrrolidin-1-yl-propyl)-benzamide]",> 20,0.3 to 1
"CC(C)(CN1CCCC1)NC(=O)c1ccc(-c2ccc3nc(N)nc(O[C@H]4CCOC4)c3n2)cc1 [Example 80, 4-[2-Amino-4-(tetrahydro-furan-3-yloxy)-pyrido[3,2-d]pyrimidin-6-yl]-N-(1,1-dimethyl-2-pyrrolidin-1-yl-ethyl)-benzamide]",10 to 20,< 0.3
"CC(C)(CN1CCOCC1)NC(=O)c1ccc(-c2ccc3nc(N)nc(O[C@H]4CCOC4)c3n2)cc1 [Example 81, 4-[2-Amino-4-(tetrahydro-furan-3-yloxy)-pyrido[3,2-d]pyrimidin-6-yl]-N-(1,1-dimethyl-2-morpholin-4-yl-ethyl)-benzamide]",> 20,< 0.3
"Nc1nc(O[C@H]2CCOC2)c2nc(-c3ccc(C(=O)NCC(F)(F)F)cc3)ccc2n1 [Example 82, 4-[2-Amino-4-(tetrahydro-furan-3-yloxy)-pyrido[3,2-d]pyrimidin-6-yl]-N-(2,2,2-trifluoro-ethyl)-benzamide]",10 to 20,< 0.3
